Legend:
[1] = Cell viability assay (MTT) on normal mammary epithelial cells; format: cell-based; conditions: human, MCF-10A normal mammary gland epithelial cells, four days
Description: This test assesses the safety of new compounds 8a–l on normal cell lines. The efficacy of 8a–l was tested on the normal human mammary gland epithelial cell line MCF-10A. MCF-10A cells were incubated with 50 µM of each tested compound for four days. Cell viability was assessed using the MTT assay.[11,48] Appendix A has extra experimental details.
This assay evaluates the impact of novel compounds 8a–l on normal cell lines to determine their safety, an essential consideration in drug discovery. The efficacy of the examined compounds was evaluated utilizing the normal human mammary gland epithelial cell line MCF-10A. […]
4.2. Biological evaluation
4.2.1 Cell Viability assay (MTT assay)
(§1) MTT assay was performed to investigate the effect of the synthesized compounds on mammary epithelial cells (MCF-10A). The cells were propagated in medium consisting of Ham's F-12 medium/ Dulbecco's modified Eagle's medium (DMEM) (1:1) supplemented with 10% foetal calf serum (GIBCO, UK), 2 mM glutamine, insulin (10 μg/mL), hydrocortisone (500 ng/mL) and epidermal growth factor (20 ng/mL). Trypsin ethylenediamine tetra acetic acid (EDTA) was used to passage the cells after every 2-3 days. 96-well flat-bottomed cell culture plates were used to seed the cells at a density of 10^4 cells mL-1. The medium was aspirated from all the wells of culture plates after 24 h followed by the addition of synthesized compounds (in 200 μL medium to yield a final concentration of 0.1% (v/v) dimethyl sulfoxide) into individual wells of the plates.
(§2) Four wells were designated to a single compound. The plates were allowed to incubate at 37°C for 96 h. Afterwards, the medium was aspirated and 3-[4,5-dimethylthiazol-2-yl]-2,5-diphenyltetrazolium bromide (MTT) (0.4 mg/mL) in medium was added to each well and subsequently incubated for 3 h. The medium was aspirated and 150 μL dimethyl sulfoxide (DMSO) was added to each well. The plates were vortexed followed by the measurement of absorbance at 540 nm on a microplate reader. […]

[2] = tested on: HCT-116; assay: Antiproliferative assay (MTT); format: cell-based; conditions: Homo sapiens, HCT-116 colorectal, mean of three experiments ± SD
Excerpt: (§3) The MTT assay[53,54] was employed to evaluate the antiproliferative efficacy of new compounds 8a–l against two human cancer cell lines: MCF-7 (breast) and HCT-116 (colorectal carcinoma). Erlotinib was employed as the benchmark. Check Appendix A for additional experimental information.
(§4) The MTT assay[53,54] was used to evaluate the antiproliferative properties of novel compounds 8a–l against two human cancer cell lines: MCF-7 (breast cancer) and HCT-116 (colorectal carcinoma). Erlotinib was utilized as the reference. […] The provided values represent the means of three experiments ± standard deviation (SD). […]
as §1, with “of” for “MTT assay was performed to investigate the effect of the synthesized compounds on mammary epithelial cells (MCF-10A). The cells were propagated in medium consisting of”
as §2
(§5) All cell lines […]
(§6) were obtained from ATCC (American Type Cell Culture). […]
(§7) μM), benzamidine HCl (16 μg/mL), NaCl (10 mM),leupeptin (10 μg/mL) and pepstatin (10 μg/mL) at 0°C for 20 min at pH 7.4, followed by centrifugation for 20 min. To eliminate the nonspecifically bound material, a Ni-NTA super flow packed column was (1 picture or pasted object on this page, not shown here)

[3] = tested on: MCF-7; assay: Antiproliferative assay (MTT); format: cell-based; conditions: Homo sapiens, MCF7, MCF-7 breast, mean of three experiments ± SD
Excerpt: as §3, §4
as §1, with “of” for “MTT assay was performed to investigate the effect of the synthesized compounds on mammary epithelial cells (MCF-10A). The cells were propagated in medium consisting of”
as §2, §5, §6, §7

[4] = tested on: HCT-116 and MCF-7; assay: Antiproliferative assay, average over the two cell lines; format: cell-based; conditions: Homo sapiens; average of HCT-116 and MCF-7; read-out: Average IC50 (GI50)
Excerpt: as §3
The MTT assay[53,54] was used to evaluate the antiproliferative properties of novel compounds 8a–l against two human cancer cell lines: MCF-7 (breast cancer) and HCT-116 (colorectal carcinoma). Erlotinib was utilized as the reference. […] The provided values represent the means of three experiments ± standard deviation (SD).

[5] = target: VEGFR-2 kinase; parameters: method as in PMID 24456902; conditions: cited from earlier work
[6] = tested on: wild-type EGFR; parameters: method as in PMID 26275028; conditions: cited from earlier work
[7] = tested on: Caspase-3; assay: Caspase-3 activation assay in HCT-116 cells; format: cell-based, human
Description: Appendix A gives more details.
Additionally, activating caspases is essential for both initiating and terminating the apoptotic process.[64] Caspase-3 is an essential enzyme that cleaves several proteins within cells, leading to apoptotic cell death.[65] […]
be read immediately after the Stop Solution is added or within one hour if the microwell strips are stored at 2 - 8°C in the dark. Read the absorbance of each microwell on a spectrophotometer using 450 nm as the primary wavelength.
4.2.5. Caspase-3 activation assay
Allow all reagents to reach room temperature before use. Gently mix all liquid reagents prior to use. Determine the number of 8-well strips needed for the assay. Insert these in the frame(s) for current use. Add 100 μl of the Standard Diluent Buffer to the zero standard wells. Well(s) reserved for chromogen blank should be left empty. Add 100 μl of standards and controls or diluted samples to the appropriate microtiter wells. The sample dilution chosen should be optimized for each experimental system. Tap gently on side of plate to mix. Cover wells with plate cover and incubate for 2 hours at room temperature. Thoroughly aspirate or decant solution from wells and discard the liquid, Wash wells 4 times. Pipette 100 μl of Caspase-3 (Active) Detection Antibody solution into each well except the chromogen blank(s). Tap gently on the side of the plate to mix. Cover plate with plate cover and incubate for 1 hour at room temperature.
Thoroughly aspirate or decant solution from wells and discard the liquid, Wash wells 4 times. Add 100 μl Anti-Rabbit IgG HRP Working Solution to each well except the chromogen blank(s). Prepare the working dilution as described in Preparing IgG HRP.
Cover wells with the plate cover and incubate for 30 minutes at room temperature.
Thoroughly aspirate or decant solution from wells and discard the liquid. Wash wells 4 times. Add 100 μl of Stabilized Chromogen to each well. The liquid in the wells will […]
begin to turn blue. […] The
Tap side of plate gently to mix.
Use a curve fitting software to generate […]
for the dilution in step 3.
4.2.6. Caspase-8/9 activation assay
This lysate was diluted in […]

[8] = tested on: Caspase-9; assay: Caspase-9 activation assay in HCT-116 cells
[9] = target: EGFR (Homo sapiens, UniProt P00533); parameters: 645–1186; His6 (N); made in house; host or cells: Sf-9 insect cells (baculovirus; vectors pBlueBacHis2B and pFASTBacHTc); method as in PMID 35667253; conditions: cited from earlier work
Chain of EGFR (P00533 669-1210): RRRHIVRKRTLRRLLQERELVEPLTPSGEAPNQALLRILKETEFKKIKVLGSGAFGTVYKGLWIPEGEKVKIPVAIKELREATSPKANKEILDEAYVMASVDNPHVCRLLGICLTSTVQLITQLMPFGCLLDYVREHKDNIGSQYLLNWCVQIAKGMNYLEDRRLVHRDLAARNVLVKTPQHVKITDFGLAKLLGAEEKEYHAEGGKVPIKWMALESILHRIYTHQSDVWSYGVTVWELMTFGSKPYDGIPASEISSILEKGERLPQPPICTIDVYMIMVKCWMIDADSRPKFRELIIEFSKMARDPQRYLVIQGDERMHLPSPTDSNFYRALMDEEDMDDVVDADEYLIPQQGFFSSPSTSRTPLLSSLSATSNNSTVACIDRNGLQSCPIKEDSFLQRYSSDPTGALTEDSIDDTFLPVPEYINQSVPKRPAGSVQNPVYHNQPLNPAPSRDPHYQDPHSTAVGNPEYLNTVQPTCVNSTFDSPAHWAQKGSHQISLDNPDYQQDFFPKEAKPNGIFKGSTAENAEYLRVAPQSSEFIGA

[10] = tested on: IL-6; assay: IL-6 level by qRT-PCR in HCT-116 cells; conditions: HCT-116 cells, 24 hours, at IC50 against HCT-116 (8g 24 nM, 8h 23 nM), qRT-PCR
Description: (§8) The reference molecule was dexamethasone, a drug that uniformly regulates the immune system.
TNF-α and IL6 a determination
(§9) determined using of q RT-PCR technique. By using q RTPCR (reference), the amount
(§10) treated HCT-116 cells was measured (at the IC50 concentrations). Total RNA was
(§11) accordance with the manufacturer's instructions (RNeasy mini kit, Qiagen, Germany).
(§12) Following RNA extraction, the Revert Aid First Strand cDNA Synthesis kit (Thermo
(§13) Scientific, USA) was used to create cDNA. The Rotor-Gene Q real-time PCR thermal
(§14) cycler was used to amplify target cDNA for apoptosis markers and GAPDH [as a
(§15) normalization (housekeeping) gene] using one step RT-PCR SYBR® Green kit Master
(§16) Mix (Bio-Rad Laboratories, USA). Two microliters of cDNA were combined with one
(§17) microliter of forward primer, one microliter of reverse primer, ten microliters of master
(§18) mixture, and twenty microliters of nuclease-free water to complete the reaction volume.
(§19) Every experiment was carried out three times.
(§20) Quantitative Real Time Reverse-Transcriptase PCR (qRT-PCR) primer sequences
TNF-α : R 5'- [sequence] -3'.
IL6 : R 5'- [sequence] -3
GAPDH : R 5’- [sequence]-3’

[11] = tested on: TNF-α; assay: TNF-α level by qRT-PCR in HCT-116 cells; conditions: HCT-116 cells, 24 hours, at IC50 against HCT-116 (8g 24 nM, 8h 23 nM), qRT-PCR
Description: as §8
TNF-α and IL6 a determination
as §9, §10, §11, §12, §13, §14, §15, §16, §17, §18, §19, §20
TNF-α : R 5'- [sequence] -3'.
IL6 : R 5'- [sequence] -3
GAPDH : R 5’- [sequence]-3’

CCS(=O)(=O)c1ccc2[nH]nc(C(=O)NNC(=O)Nc3ccc(F)cc3)c2c1 [Compound 8i, 2-(5-(Ethylsulfonyl)-1H-indazole-3-carbonyl)-N-(4-fluorophenyl)hydrazine-1-carboxamide]
viability at 4 days, 50 µM [1]: 91% | IC50 [2]: 36 ± 3 nM | IC50 [3]: 44 ± 4 nM | IC50 [4]: 40 nM

CCS(=O)(=O)c1ccc2[nH]nc(C(=O)NNC(=O)NC3CCCCC3)c2c1 [Compound 8e, 2-(5-(Ethylsulfonyl)-1H-indazole-3-carbonyl)-N-(cyclohexyl)hydrazine-1-carboxamide]
viability at 4 days, 50 µM [1]: 91% | IC50 [2]: 31 ± 3 nM | IC50 [3]: 39 ± 3 nM | IC50 [4]: 35 nM

CN(c1ccc2cn(C)nc2c1)c1ccnc(Nc2ccc(OC(F)(F)F)cc2)n1 [Compound XIV]
IC50 [5]: 12 nM

C=CC(=O)Nc1cccc(Oc2nc(Nc3n[nH]c4ccccc34)cc(N3CCN(C)CC3)n2)c1 [Compound XII]
IC50 [6]: 1700 nM

CCS(=O)(=O)c1ccc2[nH]nc(C(=O)NNC(=O)NCCc3ccccc3)c2c1 [Compound 8l, 2-(5-(Ethylsulfonyl)-1H-indazole-3-carbonyl)-N-phenethylhydrazine-1-carboxamide]
viability at 4 days, 50 µM [1]: 91% | IC50 [2]: 37 ± 3 nM | IC50 [3]: 46 ± 4 nM | IC50 [4]: 42 nM

CCS(=O)(=O)c1ccc2[nH]nc(C(=O)NNC(=O)NC3CCC(C)CC3)c2c1 (centres unmarked) [Compound 8f, 2-(5-(Ethylsulfonyl)-1H-indazole-3-carbonyl)-N-(4-methylcyclohexyl)hydrazine-1-carboxamide]
viability at 4 days, 50 µM [1]: 92% | IC50 [2]: 39 ± 3 nM | IC50 [3]: 50 ± 4 nM | IC50 [4]: 45 nM

CN[C@@H]1C[C@H]2O[C@@](C)([C@@H]1OC)n1c3ccccc3c3c4c(c5c6ccccc6n2c5c31)C(=O)NC4 [Staurosporine, reference compound]
Caspase-3 Conc. [7]: 465 ± 4 pg/mL | Caspase-9 Conc. [8]: 20 ± 1 ng/mL

CCCCCNC(=O)NNC(=O)c1n[nH]c2ccc(S(=O)(=O)CC)cc12 [Compound 8a, 2-(5-(Ethylsulfonyl)-1H-indazole-3-carbonyl)-N-pentylhydrazine-1-carboxamide]
viability at 4 days, 50 µM [1]: 90% | IC50 [2]: 42 ± 4 nM | IC50 [3]: 54 ± 4 nM | IC50 [4]: 48 nM

CCCCCCCNC(=O)NNC(=O)c1n[nH]c2ccc(S(=O)(=O)CC)cc12 [Compound 8c, 2-(5-(Ethylsulfonyl)-1H-indazole-3-carbonyl)-N-heptylhydrazine-1-carboxamide]
viability at 4 days, 50 µM [1]: 91% | IC50 [2]: 30 ± 2 nM | IC50 [3]: 34 ± 2 nM | IC50 [4]: 32 nM

CCS(=O)(=O)c1ccc2[nH]nc(C(=O)NNC(=O)NCc3ccccc3)c2c1 [Compound 8j, 2-(5-(Ethylsulfonyl)-1H-indazole-3-carbonyl)-N-(benzyl)hydrazine-1-carboxamide]
viability at 4 days, 50 µM [1]: 90% | IC50 [2]: 31 ± 2 nM | IC50 [3]: 36 ± 2 nM | IC50 [4]: 34 nM

CCCCCCNC(=O)NNC(=O)c1n[nH]c2ccc(S(=O)(=O)CC)cc12 [Compound 8b, 2-(5-(Ethylsulfonyl)-1H-indazole-3-carbonyl)-N-hexylhydrazine-1-carboxamide]
viability at 4 days, 50 µM [1]: 92% | IC50 [2]: 33 ± 3 nM | IC50 [3]: 40 ± 3 nM | IC50 [4]: 37 nM

CCCCCCCCNC(=O)NNC(=O)c1n[nH]c2ccc(S(=O)(=O)CC)cc12 [Compound 8d, 2-(5-(Ethylsulfonyl)-1H-indazole-3-carbonyl)-N-octylhydrazine-1-carboxamide]
viability at 4 days, 50 µM [1]: 90% | IC50 [2]: 28 ± 1 nM | IC50 [3]: 31 ± 2 nM | IC50 [4]: 30 nM

CCS(=O)(=O)c1ccc2[nH]nc(C(=O)NNC(=O)NCc3ccc(OC)cc3)c2c1 [Compound 8k, 2-(5-(Ethylsulfonyl)-1H-indazole-3-carbonyl)-N-(4-methoxybenzyl)hydrazine-1-carboxamide]
viability at 4 days, 50 µM [1]: 92% | IC50 [2]: 30 ± 2 nM | IC50 [3]: 32 ± 2 nM | IC50 [4]: 31 nM

C#Cc1cccc(Nc2ncnc3cc(OCCOC)c(OCCOC)cc23)c1 [Erlotinib, reference compound]
IC50 [2]: 30 ± 2 nM | IC50 [3]: 40 ± 3 nM | IC50 [4]: 35 nM

CC(=O)Nc1ccc(/C(N)=N/OC(=O)c2ccc3cn[nH]c3c2)cc1 [Compound XIII]
IC50 [9]: 85 ± 5 nM

C[C@@H]1C[C@H]2[C@@H]3CCC4=CC(=O)C=C[C@]4(C)[C@@]3(F)[C@@H](O)C[C@]2(C)[C@@]1(O)C(=O)CO [Dexamethasone, reference compound]
IL-6 (% inhibition) [10]: 93% | IL-6 (% inhibition) ([10]; listed as dexamethasone): 93.2% | TNF-α (% inhibition) [11]: 83% | TNF-α (% inhibition) ([11]; listed as dexamethasone): 82.7%
